# “Also recorded” adds a separate entry of the source.
# Experiments:
# Assay type in all cases: cell-based
# [1] = tested on: Human breast cancer MCF-7 cells; experiment: Inhibition of cancer cell growth and change of morphology
# Method: (§1) Three cancer cell lines, Rat C6 giloma cells, Human breast cancer MCF-7 cells, and Human lung cancer A549 cells, were cultured in Dulbecco's modified Eagle's medium (DMEM; Gibco) containing 10% fetal bovine serum (FBS) and 1% penicillin/streptomycin. All three cell lines were maintained at 37° C. in a humidified atmosphere of 95% air and 5% CO2. For the experiments, the cells were seeded in 6-well plates. After 24 hours, the cells were treated with different concentrations of the various compounds.
# (§2) Five cancer cell lines, Rat C6 giloma cells, Human breast cancer MCF-7 cells, Human glioma Hs683 cells, Human glioblastoma 05-MG cells, and Human lung cancer A549 cells, were cultured in Dulbecco's modified Eagle's medium (DMEM; Gibco) containing 10% fetal bovine serum (FBS) and 1% penicillin/streptomycin, and were kept at 37° C. in a humidified atmosphere of 95% air and 5% CO2. Human breast cancer. MDA-MB-231 cells were cultured in L-15 medium (Gibco) containing 10% fetal bovine serum (FBS), 1% penicillin/streptomycin, and 2 mM glutamine, and were maintained at 37° C. in a humidified atmosphere of 95% air and 0% CO2. For these experiments, the cells were seeded in 6-well plates or a 60-mm dish. After 24 hours, the cells were treated with different concentrations of the various compounds. […] Human glioblastoma 05-MG cells were treated with NBM-C-BCX-OS01 (1.0, 2.0, 4.0 μg/mL) and NBM-C-BMX-OS01 (1.0, 2.0, 4.0 μg/mL) for 72 hours (see FIG. 5(e)). […] The results were counted by a trypan blue exclusion assay (see FIG. 6(b)).
# Rat C6 glioma cells = experiment: as above; conditions: for inhibition of cell growth: Rat C6 glioma cells
# Method: as §1, §2
# [2] = tested on: acetyl-Histone H3 in Human lung cancer A549 cells; experiment: Immunostaining of HDAC associated proteins; conditions: 7.5 μg/mL, 6 hrs (FIG. 3(c))
# Method: (§3) Rat C6 glioma cells, Human breast cancer MCF-7 cells, and Human lung cancer A549 cells were seeded in 6-well plates. After 24 hrs of incubation in medium+10 BSA, Human breast cancer MCF-7 cells were treated with NBM-HB-OS01 (10.0 μg/mL) and vorinostat (SAHA, 5 μM) for 24 hours. Rat C6 glioma cells were treated with NBM-C-BX-OS01 (7.5 μg/mL) and vorinostat (SAHA, 5 μM) for 6 hours. Human lung cancer A549 cells were treated with NBM-C-BA-OS01 (7.5 μg/mL) and vorinostat (SAHA, 5 μM) for 6 hours. The treated cells were fixed in 80% methanol for 30 minutes and then washed 3 times with PBS solution. Cells were permeabilized with 0.3% Triton X-100 for 30 minutes, and then blocked in 10% fetal bovine serum (FBS) in PBS-T (0.1% Twin 20 in PBS) for 1 hour. The treated cells were detected with primary antibody against acetyl-Histone H3, acetyl-tubulin, and Gelsolin.
# [3] = tested on: Human colon cancer HT-29 cells; experiment: Inhibition of cancer cell growth; conditions: various concentrations, 48 hrs (FIG. 1(b))
# [4] = tested on: p21 mRNA in Rat C6 glioma cells; experiment: RT-PCR of cell-cycle related mRNA expression; conditions: 48 hrs, GAPDH internal control (FIG. 1(d))
# Method: The cell-cycle related mRNA expression was examined by RT-PCR. The total RNA was isolated from the treated Rat C6 glioma cells using the RNeasy Mini Kit (Qiagen) as described by the manufacturer. The cDNA was produced from 500 ng of total RNA using ReverTra-Plus™ (TOYOBO).
# [5] = tested on: Human lung cancer A549 cells; experiment: Cell cycle analysis by flow cytometry (propidium iodide); conditions: A549 cells, 2.5, 5.0, 7.5, 10.0 μg/mL, 24 hours (FIG. 1(c))
# Method: Human lung cancer A549 cells, Human glioma Hs683 cells and Human glioblastoma 05-MG cells were seeded 1×10^6 cells in a 100-mm dish. After 24 hours of incubation in DMEM+10% BSA, Human lung cancer A549 cells were treated with NBM-HB-OS01 (2.5, 5.0, 7.5, 10.0 μg/mL) for 24 hours and were treated with NBM-C-BCX-OS01 (2.5, 5.0, 7.5 μg/mL) and NBM-C-BMX-OS01 (2.5, 5, 7.5 μg/mL) for 72 hours. Human glioblastoma 05-MG cells were treated with NBM-C-BCX-OS01 (1.0, 2.0, 4.0 μg/mL) and NBM-C-BMX-OS01 (1.0, 2.0, 4.0 μg/mL) for 72 hours. Human glioma Hs683 cells were treated with NBM-C-BCX-OS01 (1.0, 2.0, 4.0 μg/mL). For cell cycle analysis, cells were fixed in 80% ethanol for 1 hour (or overnight) at −20° C. and then incubated with 2 μg/mL RNase A for 30 minutes at 37° C. Cells were stained with propidium iodide ([…] PI) in PBS and analyzed using a Becton Dickinson flow cytometer, BD FACScan and CellQuest acquisition and analysis programs. […] Human glioma Hs683 cells were treated with NBM-C-BCX-OS01 (1.0, 2.0, 4.0 μg/mL) for 72 hours.
# [6] = tested on: Gelsolin in Human breast cancer MCF-7 cells; experiment: Immunostaining of HDAC associated proteins; conditions: 10 μg/mL, 24 hrs (FIG. 1(g))
# Method: as §3
# [7] = tested on: acetyl-Histone H3, acetyl-Histone H4, acetyl-tubulin, p21 in Rat C6 glioma cells; experiment: Immunoblotting of hyperacetylated histone, tubulin and p21
# Method: (§4) Rat C6 glioma cells and Human breast cancer MCF-7 cells were seeded 5×10^5 cells in a 60-mm dish or 1×10^6 cells in a 100-mm dish. After 24 hours, Rat C6 glioma cells were treated with various concentrations of NBM-HB-OS01 (2.5, 5.0, 7.5, 10.0 μg/mL) for 72 hours and were treated with 10.0 μg/mL. NBM-HB-OS01 for 1, 2, 3, and 4 hours. Human breast cancer MCF-7 cells were treated with 7.5 μg/mL NBM-C-BX-OS01 for 1, 2, 3, and 4 hours.
# [8] = tested on: Human lung cancer A549 cells; experiment: Inhibition of cancer cell growth
# Method: as §1, §2
# [9] = tested on: acetyl-tubulin in Rat C6 glioma cells; experiment: Immunostaining of HDAC associated proteins; conditions: 7.5 μg/mL, 6 hrs (FIG. 2(e))
# Method: as §3
# [10] = tested on: acetyl-Histone H3, acetyl-Histone H4, acetyl-tubulin, p21 in Human breast cancer MCF-7 cells; experiment: Immunoblotting of hyperacetylated histone, tubulin and p21; conditions: 10 μg/mL (7.5 μg/mL elsewhere in the source) for 1, 2, 3 and 4 hrs (FIG. 2(d))
# Method: as §4
# [11] = various concentrations, 48 hrs (FIG. 1(a), 2(a))
# [12] = Rat C6 glioma cells, 2.5, 5.0, 7.5, 10.0 μg/mL, 72 hrs, western blotting (FIG. 1(e))
smiles,measurement,setting,value
"COc1ccc(/C=C/C(=O)Nc2ccccc2N)c(OCc2ccccc2)c1CC=C(C)C [NBM-C-BA-OS01, (E)-2-Benzoxy-3-prenyl-4-methoxy-N-(2-aminophenyl) cinamide]",changes in morphology,"[1]; MCF-7 cells, 2.5, 5.0, 7.5 μg/mL, 72 hrs (FIG. 3(a))",exhibited changes in morphology
same,inhibition of cell growth,"Rat C6 glioma cells; 7.5 μg/mL, 48 hrs (FIG. 4)",inhibited the Rat C6 glioma cell growth
same,changes in morphology,"Rat C6 glioma cells; Rat C6 glioma cells, 2.5, 5.0, 7.5 μg/mL, 72 hrs (FIG. 3(b))",exhibited changes in morphology
same,inhibition of cell growth,"Rat C6 glioma cells; 24 hrs, NBM-C-BA-OS01 5 μg/mL, others 2.5, 5.0 μg/mL (FIG. 5(a))",inhibited the cell growth
same,acetylation of Histone H3 protein,[2],Hyperacetylation of Histone H3 protein was detected; also recorded: could induce the HDAC associated proteins expression
COc1ccc(/C=C\C(=O)OCc2ccccc2)c(OCc2ccccc2)c1CCC(C)(C)O [NBM-HB-OS01],inhibition of cell growth,Rat C6 glioma cells; [11],Inhibition of cancer cell growth
same,inhibition of cell growth,"Rat C6 glioma cells; various concentrations, 48 hrs (FIG. 1(a), 2(a)), listed as NBM-HB-HB-OS01",Inhibition of cancer cells was shown
same,inhibition of cell growth,[3],Inhibition of cancer cell growth
same,inhibition of cell growth,[3]; listed as NBM-HB-HB-OS01,Inhibition of cancer cells was shown
same,p21 mRNA (gene) expression,[4],increased p21 gene expression; also recorded: induced p21 mRNA expression
same,cell cycle arrest phase,[5],arrested the human lung cancer A549 cells on the G0/G1 phase in a dose-dependent manner
same,Gelsolin protein expression,[6],Overexpression of Gelsolin protein was observed; also recorded: could induce the HDAC associated proteins expression
same,accumulation of p21,"[7]; Rat C6 glioma cells, 10 μg/mL for 1, 2, 3 and 4 hrs (FIG. 1(f))",seen in a dose-dependent manner
same,accumulation of hyperacetylated histone H3,[7]; [12],detected in a dose-dependent manner
same,accumulation of hyperacetylated histone H4,[7]; [12],detected in a dose-dependent manner
same,accumulation of p21,[7]; [12],detected in a dose-dependent manner
"COc1ccc(/C=C\C(=O)NO)c(OCc2ccccc2)c1CC=C(C)C [NBM-C-BX-OS01, (Z)-2-Benzoxy-3-prenyl-4-methoxy-N-hydroxy-cinamide]",inhibition of cell growth,"[1]; MCF-7 cells, various concentrations, 24 hrs (FIG. 2(b))",Inhibition of cancer cells growth was shown; also recorded: arrested the cell growth
same,inhibition of cell growth,Rat C6 glioma cells; [11],Inhibition of cancer cells growth was shown; also recorded: arrested the cell growth
same,cell growth inhibition,"[8]; 72 hrs, NBM-C-BX-OS01 7.5, others 2.5, 5.0, 7.5 μg/mL (FIG. 5(b))",induced A549 cells growth inhibition in a dose-dependent manner; also recorded: induced A549 cell growth inhibition in dose-dependent amounts
same,inhibition of cell growth,"[8]; various concentrations, 48 hrs (FIG. 2(c))",Inhibition of cancer cells growth was shown; also recorded: arrested the cell growth
same,acetylated tubulin protein expression,[9],Overexpression of acetylated tubulin protein was observed; also recorded: could induce the HDAC associated proteins expression
same,expression of acetylated H3,[10],increased in a dose-dependent manner
same,expression of acetylated H4,[10],increased in a dose-dependent manner
same,expression of acetylated-tubulin,[10],increased in a dose-dependent manner
same,expression of p21,[10],increased in a dose-dependent manner

# From US8318801B2, “Cinnamic compounds and derivatives therefrom for the inhibition of histone deacetylase” (Naturewise Biotech & Medicals Corporation, priority 2009, dated 2012)
